Measurements as given in PubChem BioAssay AID256 (DTP/NCI, 2004).
Toxic doses and inconclusive results are not listed. How the source made its calls: active means survival T/C of 150% or more; inactive means T/C below 125% in these data.

Test system: CD2F1 mice, L1210 leukemia ip, survival T/C
Test: NCI In Vivo Anticancer Drug Screen. Data for tumor model L1210 Leukemia (intraperitoneal) in CD2F1 (CDF1) mice
Conditions: higher = longer survival
How it was run: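 In this screen, transplantable tumors were grown in mice given either the compound or its vehicle. Results were expressed as the treated measurement relative to the control measurement.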

[1] = endpoint: mean survival time, dose: 100.0 mg/kg/injection, schedule: Q01DX009 (ip), vehicle: saline
[2] = endpoint: mean survival time, dose: 100.0 mg/kg/injection, schedule: Q04DX003 (ip), vehicle: saline
[3] = endpoint: mean survival time, dose: 100.0 mg/kg/injection, schedule: Q04DX003 (ip), vehicle: saline with Tween-80
[4] = endpoint: mean survival time, dose: 200.0 mg/kg/injection, schedule: Q04DX003 (ip), vehicle: saline with Tween-80
[5] = endpoint: mean survival time, dose: 400.0 mg/kg/injection, schedule: Q04DX003 (ip), vehicle: saline with Tween-80
[6] = endpoint: mean survival time, dose: 50.0 mg/kg/injection, schedule: Q04DX002 (ip), vehicle: saline with Tween-80
[7] = endpoint: mean survival time, dose: 75.0 mg/kg/injection, schedule: Q01DX001 (ip), vehicle: saline
[8] = endpoint: mean survival time, dose: 150.0 mg/kg/injection, schedule: Q01DX001 (ip), vehicle: saline
[9] = endpoint: mean survival time, dose: 200.0 mg/kg/injection, schedule: Q01DX001 (ip), vehicle: saline with Tween-80
[10] = endpoint: mean survival time, dose: 400.0 mg/kg/injection, schedule: Q01DX001 (ip), vehicle: saline with Tween-80
[11] = endpoint: mean survival time, dose: 100.0 mg/kg/injection, schedule: Q04DX003 (ip), vehicle: Klucel (hydroxypropylcellulose) (HPC)
[12] = endpoint: mean survival time, dose: 200.0 mg/kg/injection, schedule: Q04DX003 (ip), vehicle: Klucel (hydroxypropylcellulose) (HPC)
[13] = endpoint: mean survival time, dose: 100.0 mg/kg/injection, schedule: Q01DX009 (ip), vehicle: saline with Tween-80
[14] = endpoint: mean survival time, dose: 200.0 mg/kg/injection, schedule: Q01DX009 (ip), vehicle: saline with Tween-80
[15] = endpoint: mean survival time, dose: 400.0 mg/kg/injection, schedule: Q01DX009 (ip), vehicle: saline with Tween-80
[16] = endpoint: mean survival time, dose: 100.0 mg/kg/injection, schedule: Q01DX009 (ip), vehicle: saline sonified
[17] = endpoint: mean survival time, dose: 50.0 mg/kg/injection, schedule: Q01DX009 (ip), vehicle: saline
[18] = endpoint: mean survival time, dose: 100.0 mg/kg/injection, schedule: Q01DX001 (ip), vehicle: saline with Tween-80

Measured: T/C

C=CCC(C(=O)O)(c1ccccc1)c1ccccc1
inactive: endpoint: mean survival time, dose: 50.0 mg/kg/injection, schedule: Q01DX009 (ip), vehicle: Klucel (hydroxypropylcellulose) (HPC) 95 % of control | endpoint: mean survival time, dose: 100.0 mg/kg/injection, schedule: Q01DX009 (ip), vehicle: Klucel (hydroxypropylcellulose) (HPC) 98 % of control | endpoint: mean survival time, dose: 200.0 mg/kg/injection, schedule: Q01DX009 (ip), vehicle: Klucel (hydroxypropylcellulose) (HPC) 98 % of control

CC(N)C(=O)NC(CO)C(=O)O (stereo not given)
inactive: [1] 103 % of control | [2] 97 % of control | endpoint: mean survival time, dose: 200.0 mg/kg/injection, schedule: Q01DX009 (ip), vehicle: saline 95 % of control | endpoint: mean survival time, dose: 200.0 mg/kg/injection, schedule: Q04DX003 (ip), vehicle: saline 93 % of control | endpoint: mean survival time, dose: 400.0 mg/kg/injection, schedule: Q01DX009 (ip), vehicle: saline 97 % of control | endpoint: mean survival time, dose: 400.0 mg/kg/injection, schedule: Q04DX003 (ip), vehicle: saline 93 % of control

OC(c1c(F)c(F)c(C(O)(C(F)(F)F)C(F)(F)F)c(F)c1F)(C(F)(F)F)C(F)(F)F
inactive: [3] 96 % of control | [4] 104 % of control | [5] 96 % of control

O=N[O-].O=N[O-].[Co].[NH-]CC[NH-].[NH-]CC[NH-]
inactive: [6] 93 % of control | [7] 103 % of control | endpoint: mean survival time, dose: 100.0 mg/kg/injection, schedule: Q04DX002 (ip), vehicle: saline with Tween-80 100 % of control | [8] 113 % of control | endpoint: mean survival time, dose: 200.0 mg/kg/injection, schedule: Q04DX002 (ip), vehicle: saline with Tween-80 96 % of control

N=C(N)N(CCS)CC(=O)O
inactive: [9] 87 % of control | [10] 90 % of control

O=C(C[n+]1cc2ccccc2cc1Cl)c1ccccc1
inactive: [11] 97 % of control | [12] 88 % of control

CC1(c2ccc3ccccc3c2)OC(=O)c2ccccc21 (stereo not given)
inactive: endpoint: median survival time, dose: 12.5 mg/kg/injection, schedule: Q04DX003 (ip), vehicle: saline with Tween-80 111 % of control | endpoint: median survival time, dose: 25.0 mg/kg/injection, schedule: Q04DX003 (ip), vehicle: saline with Tween-80 100 % of control | endpoint: median survival time, dose: 50.0 mg/kg/injection, schedule: Q04DX003 (ip), vehicle: saline with Tween-80 111 % of control | endpoint: median survival time, dose: 100.0 mg/kg/injection, schedule: Q04DX003 (ip), vehicle: saline with Tween-80 88 % of control

O=C1C=C(CCc2ccccc2)CCC1
inactive: [13] 107 % of control | [14] 107 % of control | [15] 108 % of control

N#CC1(c2ccc(Cl)cc2)CCC1
inactive: [16] 102 % of control | [3] 101 % of control | endpoint: mean survival time, dose: 200.0 mg/kg/injection, schedule: Q01DX009 (ip), vehicle: saline sonified 92 % of control | [4] 101 % of control | endpoint: mean survival time, dose: 400.0 mg/kg/injection, schedule: Q01DX009 (ip), vehicle: saline sonified 105 % of control | [5] 100 % of control

O=C(CCCCC(=O)N/N=C/c1ccco1)N/N=C/c1ccco1
inactive: [13] 92 % of control | [14] 88 % of control | [15] 93 % of control

COC(=O)Nc1cccc(OC(=O)N(C(C)C)C(C)C)c1
inactive: [3] 94 % of control | [4] 97 % of control | [5] 96 % of control

CC(O)(CCc1ccccc1)CC(O)(C(F)(F)F)C(F)(F)F (stereo not given)
inactive: endpoint: mean survival time, dose: 100.0 mg/kg/injection, schedule: Q01DX009 (ip), vehicle: other 96 % of control | [13] 97 % of control | endpoint: mean survival time, dose: 200.0 mg/kg/injection, schedule: Q01DX009 (ip), vehicle: other 102 % of control | [14] 102 % of control | endpoint: mean survival time, dose: 400.0 mg/kg/injection, schedule: Q01DX009 (ip), vehicle: other 98 % of control | [15] 108 % of control

Oc1c(C(Nc2ccccc2)c2ccccc2)ccc2cccnc12 (stereo not given)
inactive: endpoint: mean survival time, dose: 100.0 mg/kg/injection, schedule: Q01DX001 (ip), vehicle: saline 97 % of control | endpoint: mean survival time, dose: 200.0 mg/kg/injection, schedule: Q01DX001 (ip), vehicle: saline 97 % of control | endpoint: mean survival time, dose: 400.0 mg/kg/injection, schedule: Q01DX001 (ip), vehicle: saline 100 % of control

CC(C(=O)c1ccccc1)=C(C(F)(F)F)C(F)(F)F
inactive: [13] 98 % of control | [3] 91 % of control | [14] 97 % of control | [4] 97 % of control | [15] 103 % of control | [5] 100 % of control

CN1C2C=CC(=O)C1C1C(=O)N(c3ccccc3)C(=O)C12 (stereo not given)
inactive: endpoint: median survival time, dose: 12.5 mg/kg/injection, schedule: Q01DX005 (ip), vehicle: Klucel (hydroxypropylcellulose) (HPC) 93 % of control | endpoint: median survival time, dose: 25.0 mg/kg/injection, schedule: Q01DX005 (ip), vehicle: Klucel (hydroxypropylcellulose) (HPC) 98 % of control | endpoint: median survival time, dose: 50.0 mg/kg/injection, schedule: Q01DX005 (ip), vehicle: Klucel (hydroxypropylcellulose) (HPC) 93 % of control | endpoint: median survival time, dose: 100.0 mg/kg/injection, schedule: Q01DX005 (ip), vehicle: Klucel (hydroxypropylcellulose) (HPC) 94 % of control | endpoint: median survival time, dose: 200.0 mg/kg/injection, schedule: Q01DX005 (ip), vehicle: Klucel (hydroxypropylcellulose) (HPC) 95 % of control

CC(=O)NNC(=O)c1ccccn1
inactive: endpoint: mean survival time, dose: 12.5 mg/kg/injection, schedule: Q01DX009 (ip), vehicle: saline 114 % of control | endpoint: mean survival time, dose: 25.0 mg/kg/injection, schedule: Q01DX009 (ip), vehicle: saline 110 % of control | [17] 104 % of control | endpoint: mean survival time, dose: 50.0 mg/kg/injection, schedule: Q#A X018 (ip), vehicle: water 103 % of control | endpoint: mean survival time, dose: 100.0 mg/kg/injection, schedule: Q01DX001 (ip), vehicle: water 101 % of control | [1] 104 % of control | endpoint: mean survival time, dose: 100.0 mg/kg/injection, schedule: Q01DX009 (ip), vehicle: water 110 % of control | endpoint: mean survival time, dose: 100.0 mg/kg/injection, schedule: Q01DX009 (sc), vehicle: water 119 % of control | endpoint: mean survival time, dose: 200.0 mg/kg/injection, schedule: Q01DX001 (ip), vehicle: water 109 % of control | endpoint: mean survival time, dose: 200.0 mg/kg/injection, schedule: Q01DX009 (sc), vehicle: water 122 % of control

O=C(OCC(OC(=O)c1ccccc1)C1OC(OC(=O)c2ccccc2)C(OC(=O)c2ccccc2)C1OC(=O)c1ccccc1)c1ccccc1 (stereo not given)
inactive: endpoint: mean survival time, dose: 100.0 mg/kg/injection, schedule: Q01DX001 (ip), vehicle: Klucel (hydroxypropylcellulose) (HPC) 88 % of control | endpoint: mean survival time, dose: 200.0 mg/kg/injection, schedule: Q01DX001 (ip), vehicle: Klucel (hydroxypropylcellulose) (HPC) 95 % of control | endpoint: mean survival time, dose: 400.0 mg/kg/injection, schedule: Q01DX001 (ip), vehicle: Klucel (hydroxypropylcellulose) (HPC) 95 % of control

COc1cc([N+](=O)[O-])c(C)[n+]([O-])n1
inactive: endpoint: mean survival time, dose: 25.0 mg/kg/injection, schedule: Q04DX002 (ip), vehicle: saline with Tween-80 96 % of control | [6] 104 % of control

O=C1C=C(N2CCCC2)c2ccccc21
inactive: [11] 106 % of control | [12] 97 % of control | endpoint: mean survival time, dose: 400.0 mg/kg/injection, schedule: Q04DX003 (ip), vehicle: Klucel (hydroxypropylcellulose) (HPC) 95 % of control

CC(=O)Nc1ccc([N+](=O)[O-])c2ccccc12
inactive: endpoint: mean survival time, dose: 37.5 mg/kg/injection, schedule: Q04DX002 (ip), vehicle: saline with Tween-80 101 % of control | endpoint: mean survival time, dose: 75.0 mg/kg/injection, schedule: Q04DX002 (ip), vehicle: saline with Tween-80 101 % of control | endpoint: mean survival time, dose: 150.0 mg/kg/injection, schedule: Q04DX002 (ip), vehicle: saline with Tween-80 104 % of control

C1=CC(c2ccccc2)C(c2ccccc2)C(c2ccccc2)=C1 (stereo not given)
inactive: [18] 95 % of control | [9] 87 % of control | [10] 87 % of control

C(=NCC1CCC(CN=Cc2ccco2)CC1)c1ccco1 (stereo not given)
inactive: [18] 107 % of control | [9] 101 % of control | [10] 101 % of control

NC(N)=NC(N)=Nc1cnccn1
inactive: endpoint: mean survival time, dose: 25.0 mg/kg/injection, schedule: Q01DX009 (ip), vehicle: saline sonified 91 % of control | endpoint: mean survival time, dose: 25.0 mg/kg/injection, schedule: Q04DX003 (ip), vehicle: saline 104 % of control | endpoint: mean survival time, dose: 50.0 mg/kg/injection, schedule: Q01DX009 (ip), vehicle: saline sonified 97 % of control | endpoint: mean survival time, dose: 50.0 mg/kg/injection, schedule: Q04DX003 (ip), vehicle: saline 98 % of control | [7] 95 % of control | [16] 95 % of control | [2] 104 % of control | [8] 93 % of control

O=C(O)C(Br)CC(Br)C(=O)O (stereo not given)
inactive: [17] 93 % of control | [1] 93 % of control

C/C=C/C(O)C(O)/C=C/C (stereo not given)
inactive: [18] 94 % of control | [9] 97 % of control | [10] 97 % of control
